Results on one molecule are retold here after patent US10307411B2, “Use of cotinine in treating or preventing neurogenesis deficits and enhancing neurogenesis” (Department of Veterans Affairs, priority 2014, dated 2019).

For data set [1], the system named is inflammation genes in the hippocampus of stressed mice. The experiment in a line: Inflammatory response and Autoimmunity PCR array (RT-PCR) on hippocampus of mice subjected to forced swimming stress. It counts as in vivo. An excerpt: Two-month-old male C57BU6J mice (The Jackson Laboratory, Bar Harbor, Me.), weighing 25-30 g were maintained on a 12-hours light/dark cycle (light on at 07:00) with ad libitum access to food and water and maintained at a regulated temperature of 25±1″C. Upon arrival mice were group-housed and acclimated for 7 days before any intervention.
Mice were randomly divided into three groups as follows: group 1 controls that were not exposed to stress (NES) and treated with vehicle (phosphate buffered saline, PBS); group 2 controls subjected to forced swimming stress (FSB) and treated with vehicle; group 3 subjected to forced swimming stress and treated with cotinine (FSA).
Cotinine ((5S)-1-methyl-5-(3-pyridyl) pyrrolidin-2-one; Sigma-Aldrich Corporation, St. Louis, Mo., USA) solutions were prepared by dissolving the powdered compound in sterile phosphate buffered saline (PBS), and vehicle (PBS). Mice were treated with vehicle or cotinine (5 mg/kg) via gavage. […] All investigators were blind to treatment groups and doses were chosen based on previously studies (Zeitlin, et al., (2012) Cotinine enhances the extinction of contextual fear memory and reduces anxiety after fear conditioning. Behav Brain Res, 228, 284-293.). Treatments were administered for 7 days before the induction of stress. For all animals, treatment continued from the onset of treatment until euthanasia.
To induce chronic stress, mice were subjected to repetitive forced swimming (FS) for six consecutive days, for six minutes each day, as described previously (Furukawa-Hibi, et al., (2011) The hydrophobic dipeptide Leu-lie inhibits immobility induced by repeated forced swimming via the induction of BDNF. Behav Brain Res. 2011 Jul. 7; 220(2):271-280). Each mouse was placed in an inescapable transparent plastic cylinder (40 centimeters (cm) high×20 cm in diameter) filled with water to a depth of 30 cm, for six minutes. Water temperature was maintained at 24-25° C. and water was changed between all trials. In all cases, following exposure, animals were retrieved, dried with a hand towel and returned to their home cages. Mice assigned to NES control group were removed from the animal housing facility and taken to the behavioral testing room during the same period of time than FS mice, but remained in their home cages during the FS period. In all experiments, no mice needed assistance to avoid drowning.
Following behavioral experimentation, euthanasia was performed via cervical dislocation under anesthesia with isofluorane (4% induction, 2% maintenance) by investigators not assigned to prior work with the mice blinded to the treatments. Whole brains were collected and immediately stored frozen at −80° C.
The hippocampi were dissected on ice and placed into RNAlater tubes (Life Technologies; Thermo Fisher Scientific, Waltham, Mass.). RNAlater is a proprietary solution which protects RNA in tissue samples from degradation to allow for analysis at a later date. RNase free conditions were created and maintained throughout the procedure by washing labware in a 0.1% DEPC solution followed by rinsing with RNase free water. Total RNA extraction and purification was performed using RNeasy Lipid Tissue Extraction Kit (Qiagen N.V., Venlon NL). Sample homogenization was performed using Kontes Pellet Pestle Cordless Motor and/or 20 gauge needle and syringe. Samples were extracted using a Qiazol/Chloroform extraction. The samples were purified on an RNeasy spin column using multiple washes. An on-column DNase incubation was performed in order to remove contaminating DNA. The entire extraction and purification step was performed twice to remove all contaminating DNA for samples ran on the neurogenesis arrays. Samples were eluted in RNase free water.
Nucleic acid quantification was performed on the RNA, to determine how many microliters of sample to add to the cDNA reaction, as the reaction requires a specific concentration of RNA to achieve optimal results. […]

For data set [2] the following is noted: clinical studies, doses up to 1.5 mg cotinine base/kg; cited from earlier work.
For the next data set, the system named is monocytes. Particulars: α7nAChR-dependent; cited from earlier work.
[3] abbreviates: hippocampus, forced swimming stress, cotinine 5 mg/kg gavage vs stressed vehicle-treated (FSB).
[4] abbreviates: stressed mouse, cotinine vs vehicle.

As for `CN1C(=O)CC[C@H]1c1cccnc1` [cotinine, (5S)-1-methyl-5-(3-pyridyl) pyrrolidin-2-one], the “number of inflammation genes differentially expressed” value in data set [1] (cut off of two-fold difference, stressed mouse treated with cotinine versus stressed mouse treated with vehicle) is recorded as 10 genes. Further, in data set [1] (forced swimming + cotinine compared to forced swimming + vehicle), the “Fos expression decreased by” value stood at 2.5 fold. Further, the “Complement component 3 (C3) decreased by” value in data set [1] (forced swimming + cotinine compared to stressed mouse treated with vehicle) was 2.9 fold. In addition, in data set [1] (setting [3]), the “C3 (Complement component 3) Fold regulation comparing to FSB” value is recorded as −2.89 fold, the “Ccl1 (Chemokine (C-C motif) ligand 1) Fold regulation comparing to FSB” value was 2.21 fold, the “Ccl2 (Chemokine (C-C motif) ligand 2) Fold regulation comparing to FSB” value is recorded as 2.46 fold and the “Ccl3 (Chemokine (C-C motif) ligand 3) Fold regulation comparing to FSB” value is given as −4.00 fold. In data set [1] (setting [3]), the “Ccr2 (Chemokine (C-C motif) receptor 2) Fold regulation comparing to FSB” value was −2.87 fold; the “Ccr4 (Chemokine (C-C motif) receptor 4) Fold regulation comparing to FSB” value came to 2.96 fold; the “Fos (FBJ osteosarcoma oncogene) Fold regulation comparing to FSB” value is −2.55 fold; the “Nos2 (Nitric oxide synthase 2, inducible) Fold regulation comparing to FSB” value is −3.93 fold. Moreover, in data set [1] (setting [3]), the “Tlr1 (Toll-like receptor 1) Fold regulation comparing to FSB” value was 2.32 fold and the “Tnfsf14 (Tumor necrosis factor (ligand) superfamily, member 14) Fold regulation comparing to FSB” value is listed as 6.18 fold. The “inflammation genes analyzed that were down-regulated” value in data set [1] (stressed mice treated with cotinine vs stressed vehicle, hippocampus) came out at 61%. In addition, in data set [1] (setting [4]), the “Ccl3 change (down regulated by cotinine)” value is listed as 2.8 fold and the “Ccr2 change (down regulated by cotinine)” value turned out to be 4.0 fold. In data set [2], the “recall of a short list” value is on record as “did not affected the recall” and the “recall on the long list on a verbal recall task” value is on record as “impaired recall”. In addition, in the data set on monocytes, the “inflammatory response to gram-negative bacteria (expression of TNF-α, IL-1β and IL-6)” value is on record as “reduced the inflammatory response”.
